Values joined by “and” are separate entries in the source; they are usually repeats but may differ in a detail not shown here. Equal values may be shown once.
How the values were obtained:
[1] = test system: NCI-H441, HPAC and SW620 CDX models; assay: CDX models, RMC-7977 versus SHP2 and MEK inhibitors; settings: three KRAS^G12X models; RMC-7977 10 mg kg^−1 once daily, RMC-4550 20 mg kg^−1 every 2 days, cobimetinib 2.5 mg kg^−1 once daily, alone or in combination
Description: Data are mean ± s.e.m. of 3–18 mice per group.
Female BALB/c nude mice, NOD SCID and NSG mice 6-8 weeks old from Beijing Vital River/VR Laboratory Animal Co., LTD, Beijing AniKeeper Biotech Co., Ltd., Shanghai Sino-British SIPPR/BK Laboratory Animal Co., LTD and The Jackson Laboratory were used. Animals were housed in polycarbonate cages, in an environmentally monitored, well ventilated room maintained at a constant temperature of 20-26°C and relative humidity of 40-80%. Fluorescent lighting provided illumination approximately 12 hours per day. Each mouse was inoculated at the right flank with tumor cells (2x10^6-1x10^7) in 100-200 µL of media/PBS supplemented with Matrigel (1:1). Treatments were started when the average tumor size reached 100-250 mm^3. […] Mice on studies were weighed and tumor measurements collected twice weekly. Human primary cancer xenograft models were generated using fresh cancer tumor fragments obtained from hospitals with informed consent from the patients in accordance with protocols approved by the Hospital Institutional Ethical Committee (IEC). Tumor fragments were serial-passaged in BABL/c nude mice and then cryopreserved. Cryopreserved tumors were recovered by implantation in BALB/c nude mice and further serial passaged and frozen for study implantation use. Recovered tumor fragments of about 15-30 mm3 in size from each model were implanted into right flanks of Balb/c nude mice. Treatment started when average tumor volume reached 100-250mm^3. For efficacy study, Animals were assigned to study groups using stratified randomization based upon their tumor volumes (n=3-10/group). […] Animals were treated for 28 days (or up to 110 for selected models) or an earlier time if tumor burden reached humane endpoint. Mean ± s.e.m was plotted in the waterfall plots. The dashed line on waterfall plot indicates a 10% reduction in tumor volume from baseline. […] Body weights were collected twice a week during the study. For single-dose pharmacokinetic/pharmacodynamics (PK/PD) study, mice were randomized into treatment groups when mean tumor volume reached 400-600 mm^3.

NRAS^Q61K [2] = biological target: T1, NRAS^Q61K (Homo sapiens, UniProt P01111+P62937, Q61K); assay: RAS binding affinity of compound-bound CYPA (Kd2), SPR; settings: steady state SPR, (95% CI)
KRAS^G12C = KRAS^G12C (Homo sapiens, UniProt P01116+P62937, G12C); assay: as above; design: His6-TEV (N); made in house; host or cells: BL21(DE3) Escherichia coli; settings: steady state SPR, (95% CI)
HRAS WT = HRAS WT (Homo sapiens, UniProt P01112+P62937); assay: Biochemical RAS–RAF (BRAF RBD) disruption, TR-FRET; design: His6-TEV (N); made in house; host or cells: E. coli BL21(DE3)
Description: (§1) Time-resolved fluorescence resonance energy transfer (TR-FRET) was used as previously described to assess disruption of the interactions between wild-type RAS or the mutant oncogenic RAS proteins and the RAS-binding domain of BRAF, and to assess the induction of interactions between the RAS proteins and CYPA[12].

KRAS^G12S = KRAS^G12S (Homo sapiens, UniProt P01116+P62937, G12S); assay: Biochemical RAS–RAF (BRAF RBD) disruption, TR-FRET; design: His6-TEV (N); made in house; host or cells: E. coli BL21(DE3)
Description: as §1

[3] = biological target: T2, MRAS and other RAS family small GTPase proteins (Homo sapiens, UniProt Q15382); assay: Cellular BRET between CYPA and small GTPases (RIT1, MRAS, RRAS, RRAS2, Rheb); format: cell-based; settings: RHEB, single replicates
T2 construct: expressed in transfected cells; host or cells: U2OS PPIA-KO

[4] = test system: MRAS and other RAS family small GTPase proteins; assay: as above; format: cell-based, human; settings: cellular BRET with CYPA
[5] = biological target: T3, MRAS and other RAS family small GTPase proteins (Homo sapiens, UniProt P10301, G38V); assay: as above; format: cell-based; settings: RRAS G38V, single replicates
T3 construct: expressed in transfected cells; host or cells: U2OS PPIA-KO
T3 sequence (P10301 1-218 G38V): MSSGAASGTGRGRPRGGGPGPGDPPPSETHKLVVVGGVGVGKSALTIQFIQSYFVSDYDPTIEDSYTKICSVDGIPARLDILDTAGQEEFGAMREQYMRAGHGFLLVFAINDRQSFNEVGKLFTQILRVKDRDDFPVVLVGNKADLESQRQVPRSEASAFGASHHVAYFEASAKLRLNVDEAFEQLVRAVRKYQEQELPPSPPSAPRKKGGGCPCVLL

[6] = test system: adagrasib-resistant NCI-H358 cells with secondary NRAS^Q61K mutation; assay: Proliferation (CTG) and western blots of parental and adagrasib-resistant NCI-H358 (NRAS^Q61K); format: cell-based, human; settings: NCI-H358 clone with concurrent NRAS^Q61K mutation
NRAS^Q61L = NRAS^Q61L (Homo sapiens, UniProt P01111+P62937, Q61L); assay: Biochemical RAS–RAF (BRAF RBD) disruption, TR-FRET; settings: (95% CI)
Description: as §1

KRAS^Q61H = KRAS^Q61H (Homo sapiens, UniProt P01116+P62937, Q61H); assay: Biochemical RAS–RAF (BRAF RBD) disruption, TR-FRET
Description: as §1

HRAS^G13R = HRAS^G13R (Homo sapiens, UniProt P01112+P62937, G13R); assay: Biochemical RAS–RAF (BRAF RBD) disruption, TR-FRET; settings: HRAS^G13R; BRAF RBD; (95% CI); read-out: Biochemical RAS-RAF Disruption EC50
Description: as §1

NRAS^Q61K [7] = biological target: T1, NRAS^Q61K; assay: Biochemical RAS–RAF (BRAF RBD) disruption, TR-FRET
Description: as §1

NRAS WT = NRAS WT (Homo sapiens, UniProt P01111+P62937); assay: Biochemical RAS–RAF (BRAF RBD) disruption, TR-FRET
Description: as §1

KRAS^G13D = KRAS^G13D (Homo sapiens, UniProt P01116+P62937, G13D); assay: Biochemical RAS–RAF (BRAF RBD) disruption, TR-FRET
Description: as §1

KRAS^G12A = KRAS^G12A (Homo sapiens, UniProt P01116+P62937, G12A); assay: Biochemical RAS–RAF (BRAF RBD) disruption, TR-FRET
Description: as §1

NRAS^Q61R = NRAS^Q61R (Homo sapiens, UniProt P01111+P62937, Q61R); assay: Biochemical RAS–RAF (BRAF RBD) disruption, TR-FRET; settings: (95% CI)
Description: as §1

KRAS^G13C = KRAS^G13C (Homo sapiens, UniProt P01116+P62937, G13C); assay: Biochemical RAS–RAF (BRAF RBD) disruption, TR-FRET
Description: as §1

Which results are given for `CCn1c(-c2cc(N3CCN(C4CC4)CC3)cnc2[C@H](C)OC)c2c3cc(ccc31)-c1csc(n1)C[C@H](NC(=O)[C@H]1[C@@H]3COC[C@@H]31)C(=O)N1CCC[C@H](N1)C(=O)OCC(C)(C)C2` [RMC-7977]?
anti-tumour activity [1]: deep regressions in all three models; Kd (NRAS^Q61K [2]): 72.4 nM; Kd (KRAS^G12C): 40.1 nM; EC50 (HRAS WT): 59.9 nM; EC50 (KRAS^G12S): 107 nM; Cellular milliBRET signal between CYPA and small GTPase protein ([3]; RMC-7977 1.524 nM): -0.45 milliBRET and -0.2239 milliBRET and 0.1289 milliBRET and 0.6887 milliBRET and -0.5364 milliBRET and -0.5485 milliBRET; Cellular milliBRET signal between CYPA and small GTPase protein ([3]; RMC-7977 4.572 nM): 0.6966 milliBRET and 0.368 milliBRET and 0.4716 milliBRET and -0.2095 milliBRET and 0.8367 milliBRET and -0.3539 milliBRET; Cellular milliBRET signal between CYPA and small GTPase protein ([3]; RMC-7977 13.717 nM): 1.377 milliBRET and 0.5452 milliBRET and 0.5599 milliBRET and 0.1038 milliBRET and 0.7915 milliBRET and 0.2385 milliBRET; Cellular milliBRET signal between CYPA and small GTPase protein ([3]; RMC-7977 41.152 nM): 0.3762 milliBRET and 0.1445 milliBRET and -0.08351 milliBRET and -0.3538 milliBRET and 0.07098 milliBRET and 0.09785 milliBRET; Cellular milliBRET signal between CYPA and small GTPase protein ([3]; RMC-7977 123.457 nM): 1.173 milliBRET and 0.0474 milliBRET and 0.6247 milliBRET and 0.06196 milliBRET and -0.03233 milliBRET and -0.4308 milliBRET; Cellular milliBRET signal between CYPA and small GTPase protein ([3]; RMC-7977 370.370 nM): 0.02833 milliBRET and 1.208 milliBRET and -0.3412 milliBRET and 1.195 milliBRET and -0.2334 milliBRET and 1.355 milliBRET; Cellular milliBRET signal between CYPA and small GTPase protein ([3]; RMC-7977 1111.111 nM): 0.8505 milliBRET and -0.1562 milliBRET and 0.9686 milliBRET and -0.197 milliBRET and 0.47 milliBRET and 0.6063 milliBRET; tri-complex formation potency for KRAS versus MRAS and other RAS family small GTPases [4]: more than tenfold more potent; Cellular milliBRET signal between CYPA and small GTPase protein ([5]; RMC-7977 1.524 nM): 0.03915 milliBRET and 0.5182 milliBRET and 0.5529 milliBRET and 0.4086 milliBRET and -0.3288 milliBRET and -0.1046 milliBRET; Cellular milliBRET signal between CYPA and small GTPase protein ([5]; RMC-7977 4.572 nM): 0.5753 milliBRET and 0.4746 milliBRET and 0.4726 milliBRET and 0.8392 milliBRET and 0.3184 milliBRET and -0.4343 milliBRET; Cellular milliBRET signal between CYPA and small GTPase protein ([5]; RMC-7977 13.717 nM): 1.433 milliBRET and 1.375 milliBRET and 1.967 milliBRET and 1.168 milliBRET and -0.05818 milliBRET and -0.1444 milliBRET; Cellular milliBRET signal between CYPA and small GTPase protein ([5]; RMC-7977 41.152 nM): 2.179 milliBRET and 2.7799 milliBRET and 3.446 milliBRET and 3.438 milliBRET and 1.092 milliBRET and 1.757 milliBRET; Cellular milliBRET signal between CYPA and small GTPase protein ([5]; RMC-7977 123.457 nM): 6.2456 milliBRET and 5.867 milliBRET and 7.851 milliBRET and 6.806 milliBRET and 4.695 milliBRET and 3.825 milliBRET; Cellular milliBRET signal between CYPA and small GTPase protein ([5]; RMC-7977 370.370 nM): 10.4854 milliBRET and 10.0017 milliBRET and 10.9416 milliBRET and 10.5658 milliBRET and 8.5015 milliBRET and 8.57 milliBRET; Cellular milliBRET signal between CYPA and small GTPase protein ([5]; RMC-7977 1111.111 nM): 11.032 milliBRET and 12.1599 milliBRET and 11.6879 milliBRET and 11.9893 milliBRET and 10.1243 milliBRET and 10.2861 milliBRET; RAS signalling and growth of adagrasib-resistant clone [6]: inhibited RAS signalling and growth; EC50 (NRAS^Q61L): 145 nM; EC50 (KRAS^Q61H): 47.7 nM; EC50 (HRAS^G13R): 23.7 nM; EC50 (NRAS^Q61K [7]): 53.9 nM; EC50 (NRAS WT): 57.7 nM; EC50 (KRAS^G13D): 142 nM; EC50 (KRAS^G12A): 102 nM; EC50 (NRAS^Q61R): 181 nM; EC50 (KRAS^G13C): 49.7 nM

Source: article PMC11111408, “Concurrent inhibition of oncogenic and wild-type RAS-GTP for cancer therapy” (Nature, 2024)
